Read-outs that look alike come from different tables or passages of the source.
What was measured:
Tyk2 = target: T1, Tyk2 (Homo sapiens, UniProt P29597); test: Biochemical Tyk2 kinase assay (LanthaScreen); conditions: for Ki: read-out: Tyk 2 (pKi) (converted)
T1 construct: GST; purchased Life Technologies
Summary of the method: (§1)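 Compounds were preincubated with the GST-tagged kinase and GFP-labelled STAT1 peptide for one hour before ATP initiated a one-hour reaction at ambient temperature. Phosphorylation was quantified by TR-FRET with a Tb-labelled pTyr701 antibody. Ki values were derived from IC50 using Cheng-Prusoff.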

JAK3 = target: T2, JAK3 (Homo sapiens, UniProt P52333); test: Biochemical JAK3 kinase assay (LanthaScreen); parameters: GST; purchased Life Technologies; conditions: for Ki: read-out: JAK 3 (pKi) (converted)
T2 sequence (P52333 1-1124): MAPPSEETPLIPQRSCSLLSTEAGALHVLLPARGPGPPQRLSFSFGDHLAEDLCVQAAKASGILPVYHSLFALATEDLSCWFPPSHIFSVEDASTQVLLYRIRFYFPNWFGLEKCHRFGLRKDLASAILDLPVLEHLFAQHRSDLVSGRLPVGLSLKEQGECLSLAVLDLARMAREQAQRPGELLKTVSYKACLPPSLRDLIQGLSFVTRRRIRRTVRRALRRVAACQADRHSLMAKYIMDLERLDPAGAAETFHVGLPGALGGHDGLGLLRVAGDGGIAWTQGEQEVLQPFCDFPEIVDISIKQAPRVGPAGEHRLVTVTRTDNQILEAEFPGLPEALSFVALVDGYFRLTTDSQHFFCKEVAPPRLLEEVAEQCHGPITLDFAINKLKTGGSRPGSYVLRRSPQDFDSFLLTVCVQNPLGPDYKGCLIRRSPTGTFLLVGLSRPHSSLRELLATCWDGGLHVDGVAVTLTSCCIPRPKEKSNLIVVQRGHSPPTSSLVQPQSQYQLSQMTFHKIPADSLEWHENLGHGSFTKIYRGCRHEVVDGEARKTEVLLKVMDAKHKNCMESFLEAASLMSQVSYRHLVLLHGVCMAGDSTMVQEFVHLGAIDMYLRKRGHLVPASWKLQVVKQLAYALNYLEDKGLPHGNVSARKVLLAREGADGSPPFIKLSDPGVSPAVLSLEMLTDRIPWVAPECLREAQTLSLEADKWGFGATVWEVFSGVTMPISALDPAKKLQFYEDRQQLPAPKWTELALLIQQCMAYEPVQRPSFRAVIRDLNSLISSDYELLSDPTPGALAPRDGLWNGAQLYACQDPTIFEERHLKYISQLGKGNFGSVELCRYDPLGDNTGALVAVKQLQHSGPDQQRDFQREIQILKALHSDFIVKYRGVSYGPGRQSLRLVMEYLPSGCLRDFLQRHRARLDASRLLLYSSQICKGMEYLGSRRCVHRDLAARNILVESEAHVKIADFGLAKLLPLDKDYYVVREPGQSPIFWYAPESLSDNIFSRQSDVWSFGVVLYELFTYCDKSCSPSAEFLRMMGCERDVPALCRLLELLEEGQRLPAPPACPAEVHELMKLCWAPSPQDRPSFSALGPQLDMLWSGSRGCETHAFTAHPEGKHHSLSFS
Summary of the method: as §1

[1] = tested on: IL-2 stimulated pSTAT5 in Tall-1 T cells; test: Cellular JAK3 potency assay: inhibition of IL-2 stimulated pSTAT5 in Tall-1 T cells; assay type: cell-based, human; conditions: for IC50: Homo sapiens, read-out: Tall-1 (pIC50) (converted)
Summary of the method: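 Tall-1 human T cells were preincubated with compound for 1 h at 37° C, then stimulated with IL-2 (300 ng/ml final) for 30 min. STAT5 phosphorylation in lysates was read by AlphaLisa bead emission, and IC50 from inhibition curves is given as pIC50 (mean±SD).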

JAK2 = target: T3, JAK2 (Homo sapiens, UniProt O60674); test: Biochemical JAK2 kinase assay (LanthaScreen); conditions: for Ki: read-out: JAK 2 (pKi) (converted)
T3 construct: GST; purchased Life Technologies
T3 sequence (O60674 whole entry): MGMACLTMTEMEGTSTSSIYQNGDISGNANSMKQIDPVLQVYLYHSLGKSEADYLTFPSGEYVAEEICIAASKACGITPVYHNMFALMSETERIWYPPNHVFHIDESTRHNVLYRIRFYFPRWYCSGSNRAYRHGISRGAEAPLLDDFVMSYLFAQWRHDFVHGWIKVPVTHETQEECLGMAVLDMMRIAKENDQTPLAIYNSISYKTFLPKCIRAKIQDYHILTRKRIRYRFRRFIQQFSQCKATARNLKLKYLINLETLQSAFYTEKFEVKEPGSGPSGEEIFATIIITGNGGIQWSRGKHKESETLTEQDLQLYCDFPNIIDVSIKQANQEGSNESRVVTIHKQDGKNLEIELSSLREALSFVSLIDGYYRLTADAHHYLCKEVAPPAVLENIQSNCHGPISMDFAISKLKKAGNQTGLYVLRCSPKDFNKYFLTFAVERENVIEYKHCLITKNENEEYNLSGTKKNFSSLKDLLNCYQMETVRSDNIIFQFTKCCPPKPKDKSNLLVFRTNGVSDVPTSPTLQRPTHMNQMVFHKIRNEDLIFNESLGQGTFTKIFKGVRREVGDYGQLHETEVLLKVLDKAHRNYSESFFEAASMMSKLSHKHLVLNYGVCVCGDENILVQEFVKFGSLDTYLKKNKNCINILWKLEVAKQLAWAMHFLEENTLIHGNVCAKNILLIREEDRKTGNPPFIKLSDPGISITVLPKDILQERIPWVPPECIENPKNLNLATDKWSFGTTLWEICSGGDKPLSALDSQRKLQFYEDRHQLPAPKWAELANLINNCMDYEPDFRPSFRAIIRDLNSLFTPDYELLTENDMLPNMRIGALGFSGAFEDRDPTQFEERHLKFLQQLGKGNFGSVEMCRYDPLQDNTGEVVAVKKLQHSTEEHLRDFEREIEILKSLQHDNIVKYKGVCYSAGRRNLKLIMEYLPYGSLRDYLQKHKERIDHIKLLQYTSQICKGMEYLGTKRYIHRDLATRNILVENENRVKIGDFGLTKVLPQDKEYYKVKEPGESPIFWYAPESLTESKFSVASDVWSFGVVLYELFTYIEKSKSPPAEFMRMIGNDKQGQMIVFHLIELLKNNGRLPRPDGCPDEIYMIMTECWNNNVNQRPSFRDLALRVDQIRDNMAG
Summary of the method: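 pKi values derive from pIC50 via Cheng-Prusoff, with IC50 from a 4-parameter fit of percent-inhibition TR-FRET data using Tb-anti-pSTAT1 (pTyr701) detection. Compound, GST-JAK2 and GFP-STAT1 substrate were pre-incubated 1 h, then ATP started a 1 h ambient reaction (HEPES pH 7.5, 10 mM MgCl2, 1% DMSO).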

JAK1 = target: T4, JAK1 (Homo sapiens, UniProt P23458); test: Biochemical JAK1 kinase assay (LanthaScreen); conditions: for Ki: read-out: JAK 1 (pKi) (converted)
T4 construct: GST; purchased Life Technologies
T4 sequence (P23458 whole entry): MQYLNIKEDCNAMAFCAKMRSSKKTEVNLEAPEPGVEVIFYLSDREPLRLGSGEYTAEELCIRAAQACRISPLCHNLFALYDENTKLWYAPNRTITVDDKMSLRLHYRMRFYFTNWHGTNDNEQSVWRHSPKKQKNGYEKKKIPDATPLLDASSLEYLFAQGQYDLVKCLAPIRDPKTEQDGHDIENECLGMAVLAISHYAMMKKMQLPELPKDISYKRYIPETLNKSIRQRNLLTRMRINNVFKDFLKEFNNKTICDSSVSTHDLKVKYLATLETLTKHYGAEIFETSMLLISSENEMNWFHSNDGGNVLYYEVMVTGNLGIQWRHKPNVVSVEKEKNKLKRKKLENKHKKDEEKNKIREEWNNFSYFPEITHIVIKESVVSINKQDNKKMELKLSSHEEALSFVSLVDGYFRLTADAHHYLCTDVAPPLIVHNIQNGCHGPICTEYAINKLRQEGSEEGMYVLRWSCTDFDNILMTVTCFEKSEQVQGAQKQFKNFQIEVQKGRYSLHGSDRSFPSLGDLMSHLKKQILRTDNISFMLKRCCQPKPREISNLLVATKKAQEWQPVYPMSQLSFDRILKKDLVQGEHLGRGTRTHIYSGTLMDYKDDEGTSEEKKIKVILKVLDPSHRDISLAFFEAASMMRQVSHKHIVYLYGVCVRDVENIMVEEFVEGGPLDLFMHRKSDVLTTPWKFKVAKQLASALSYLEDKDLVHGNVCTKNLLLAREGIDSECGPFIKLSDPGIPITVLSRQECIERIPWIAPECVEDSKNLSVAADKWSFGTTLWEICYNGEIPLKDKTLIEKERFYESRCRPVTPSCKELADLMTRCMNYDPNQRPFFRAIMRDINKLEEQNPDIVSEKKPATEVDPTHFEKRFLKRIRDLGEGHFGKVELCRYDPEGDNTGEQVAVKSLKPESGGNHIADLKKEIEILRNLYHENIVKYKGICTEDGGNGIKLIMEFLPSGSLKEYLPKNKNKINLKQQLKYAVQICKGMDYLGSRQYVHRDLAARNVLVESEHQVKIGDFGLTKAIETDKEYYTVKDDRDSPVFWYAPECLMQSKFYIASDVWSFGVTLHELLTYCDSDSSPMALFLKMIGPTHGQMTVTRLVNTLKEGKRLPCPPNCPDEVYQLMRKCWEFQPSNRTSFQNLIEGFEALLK
Summary of the method: as §1

[2] = selectivity: difference of pKi JAK3 and pKi JAK1
[3] = TALL-1, IL-2 stimulated pSTAT5 in Tall-1 T cells
[4] = selectivity JAK3 over JAK1, difference of pKi
[5] = TALL-1, IL-2 stimulated pSTAT5, Tall-1 T cells
[6] = IL-2 stimulated pSTAT5, Tall-1 T cells
[7] = IL-2 stimulated pSTAT5 in Tall-1 T cells

T1 sequence (P29597 whole entry): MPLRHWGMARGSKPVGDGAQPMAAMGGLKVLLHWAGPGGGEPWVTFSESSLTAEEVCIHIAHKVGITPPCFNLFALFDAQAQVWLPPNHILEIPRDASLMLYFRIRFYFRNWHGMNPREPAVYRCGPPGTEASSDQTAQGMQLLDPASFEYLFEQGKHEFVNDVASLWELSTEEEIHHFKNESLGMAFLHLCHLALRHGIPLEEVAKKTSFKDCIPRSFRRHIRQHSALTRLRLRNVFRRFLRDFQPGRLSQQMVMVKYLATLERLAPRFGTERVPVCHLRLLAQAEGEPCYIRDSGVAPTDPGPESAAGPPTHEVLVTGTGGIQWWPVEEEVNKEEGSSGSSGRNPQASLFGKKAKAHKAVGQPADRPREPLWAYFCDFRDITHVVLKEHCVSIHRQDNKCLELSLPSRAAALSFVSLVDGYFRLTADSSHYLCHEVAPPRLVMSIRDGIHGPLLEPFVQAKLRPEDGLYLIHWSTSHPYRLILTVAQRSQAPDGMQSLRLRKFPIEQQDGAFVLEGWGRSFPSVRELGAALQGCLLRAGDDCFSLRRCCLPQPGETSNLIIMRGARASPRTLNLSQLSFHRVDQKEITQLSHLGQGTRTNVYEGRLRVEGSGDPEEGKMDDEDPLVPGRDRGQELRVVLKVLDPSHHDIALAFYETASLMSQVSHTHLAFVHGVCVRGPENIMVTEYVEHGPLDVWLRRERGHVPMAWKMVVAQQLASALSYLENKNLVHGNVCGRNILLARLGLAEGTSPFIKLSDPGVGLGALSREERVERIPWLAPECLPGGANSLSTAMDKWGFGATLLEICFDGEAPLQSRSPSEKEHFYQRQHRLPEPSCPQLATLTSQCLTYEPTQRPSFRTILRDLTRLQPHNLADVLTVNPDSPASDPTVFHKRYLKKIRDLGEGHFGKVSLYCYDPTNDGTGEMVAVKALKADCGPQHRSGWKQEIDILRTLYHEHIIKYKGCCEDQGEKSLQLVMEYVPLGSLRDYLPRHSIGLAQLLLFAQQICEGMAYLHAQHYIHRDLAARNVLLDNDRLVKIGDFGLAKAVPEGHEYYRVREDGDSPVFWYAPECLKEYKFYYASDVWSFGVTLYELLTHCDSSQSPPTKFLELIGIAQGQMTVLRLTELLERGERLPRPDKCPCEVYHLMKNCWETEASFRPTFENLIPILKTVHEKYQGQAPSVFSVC

SMILES | Ki (Tyk2) [nM] | Ki (JAK3) [nM] | JAK3 (pKi)-JAK1 (pKi) (JAK3; [2]) | IC50 [1, 3] [nM] | Ki (JAK2) [nM] | Ki (JAK1) [nM] | JAK3 (pKi)-JAK1 (pKi) (JAK3; [4]) | IC50 [1, 5] [nM] | Tyk 2 (pKi) (Tyk2) | JAK 3 (pKi) (JAK3) | Tall-1 (pIC50) [1, 6] | JAK 2 (pKi) (JAK2) | JAK 1 (pKi) (JAK1) | Tall-1 (pIC50) [1, 7]
CN(C)C/C=C\C(=O)N1CC(COc2cc(-c3ccc(O)c(Cl)c3)cc3[nH]ncc23)C1 [Compound 3-122] | > 100 | < 0.1 | A (a value of 3 or above) | < 31.6 | 10 to 100 | > 100 |  |  |  |  |  |  |  | 
CSC1CCN(C/C=C/C(=O)N2CC(COc3cc(-c4ccc(O)cc4)cc4[nH]ncc34)C2)C1 (stereo not drawn) [Compound 3-125] | > 100 | 0.1 to 1 | A (a value of 3 or above) | 31.6 to 200 | > 100 | > 100 |  |  |  |  |  |  |  | 
C=CC(=O)N1CC[C@H](COc2cc(-c3ccc(O)cc3)cc3[nH]nnc23)C1 [Compound 23, (S)-1-(3-(((6-(4-hydroxyphenyl)-1H-benzo[d][1,2,3]triazol-4-yl)oxy)methyl)pyrrolidin-1-yl)prop-2-en-1-one] | > 100 | < 0.1 | A (a value of 3 or above) | 31.6 to 200 | 10 to 100 | > 100 |  |  |  |  |  |  |  | 
COC1(COc2cc(-c3ccc(O)cc3)cc3[nH]ncc23)CN(C(=O)/C=C/CN(C)C)C1 [Compound 3-32] | > 100 | 0.1 to 1 | A (a value of 3 or above) | < 31.6 | > 100 | > 100 |  |  |  |  |  |  |  | 
C=CC(=O)N1CCC(Oc2nc(-c3ccc(O)c(F)c3)cc3[nH]ncc23)CC1 [Compound 6-16] | > 100 | 0.1 to 1 |  |  | 10 to 100 | > 100 | A (a value of 3 or above) | 31.6 to 200 |  |  |  |  |  | 
C=CC(=O)N1CC[C@H](Oc2nc(-c3ccc(O)cc3)cc3[nH]nc(C)c23)C1 [Compound 1-34] | > 100 | 0.1 to 1 | A (a value of 3 or above) | < 31.6 | 10 to 100 | > 100 |  |  |  |  |  |  |  | 
CN(C)C/C=C/C(=O)N1CC(CSc2cc(-c3ccc(O)c(F)c3)cc3[nH]ncc23)C1 [Compound 13-5] |  |  |  |  |  |  | A (a value of 3 or above) |  | E (a pKi value of 7 or below (Ki of 100 nM or above)) | A (a pKi value≥10 (Ki≤0.1 nM)) | B (a pIC50 value between 6.7 (included) and 7.5 (IC50 between 200 nM and 32 nM)) | D (a pKi value between 7 and 8 (Ki between 100 nM and 10 nM)) | E (a pKi value of 7 or below (Ki of 100 nM or above)) | 
CN(C)C/C=C/C(=O)N1CC(Oc2cc(-c3ccc(O)c(F)c3)cc3[nH]ncc23)(C(F)F)C1 [Compound 5-17] |  |  | A (a value of 3 or above) |  |  |  |  |  | E (a pKi value of 7 or below (Ki of 100 nM or above)) | B (a pKi value between 9 and 10 (Ki between 1 nM and 0.1 nM)) |  | E (a pKi value of 7 or below (Ki of 100 nM or above)) | E (a pKi value of 7 or below (Ki of 100 nM or above)) | A (a pIC50 value≥7.5 (IC50≤32 nM))
CC(C)CN(C)C/C=C/C(=O)N1CC(COc2cc(-c3ccc(O)cc3)cc3[nH]ncc23)C1 [Compound 3-118] | > 100 | 0.1 to 1 | A (a value of 3 or above) | < 31.6 | > 100 | > 100 |  |  |  |  |  |  |  | 
C=CC(=O)N1CC[C@H](Oc2cc(-c3ccc(O)cc3)cc3[nH]ncc23)C[C@H]1C [Compound 12-32] | > 100 | < 0.1 |  |  | 10 to 100 | > 100 | A (a value of 3 or above) | < 31.6 |  |  |  |  |  | 
CCC1(COc2cc(-c3ccc(O)c(Cl)c3)nc3[nH]ncc23)CN(C(=O)/C=C/CN(C)C)C1 [Compound 3-68] |  |  | B (a value of 2.3 to 3) |  |  |  |  |  | E (a pKi value of 7 or below (Ki of 100 nM or above)) | B (a pKi value between 9 and 10 (Ki between 1 nM and 0.1 nM)) |  | E (a pKi value of 7 or below (Ki of 100 nM or above)) | D (a pKi value between 7 and 8 (Ki between 100 nM and 10 nM)) | C (a pIC50 value between 6 and 6.7 (IC50 between 1 μM and 200 nM))
C=CC(=O)N1CC(Oc2cc(-c3ccc(O)cc3)cc3[nH]ncc23)(C(F)F)C1 [Compound 5-14] |  |  | A (a value of 3 or above) |  |  |  |  |  | E (a pKi value of 7 or below (Ki of 100 nM or above)) | A (a pKi value≥10 (Ki≤0.1 nM)) |  | E (a pKi value of 7 or below (Ki of 100 nM or above)) | E (a pKi value of 7 or below (Ki of 100 nM or above)) | A (a pIC50 value≥7.5 (IC50≤32 nM))
CN(C/C=C/C(=O)N1CC(COc2cc(-c3ccc(O)cc3)cc3[nH]ncc23)C1)C(C)(C)C [Compound 3-116] | > 100 | 0.1 to 1 | B (a value of 2.3 to 3) | 31.6 to 200 | 10 to 100 | > 100 |  |  |  |  |  |  |  | 
CN(C)C/C=C/C(=O)N1CC(CN(C)c2cc(-c3ccc(O)cc3)cc3[nH]ncc23)C1 [Compound 11, (E)-4-(dimethylamino)-1-(3-(((6-(4-hydroxyphenyl)-1H-indazol-4-yl)(methyl)amino)methyl)azetidin-1-yl)but-2-en-1-one] | > 100 | 0.1 to 1 | A (a value of 3 or above) | 31.6 to 200 | > 100 | > 100 |  |  |  |  |  |  |  | 
CCC1(COc2cc(-c3ccc(O)cc3)cc3[nH]ncc23)CN(C(=O)/C=C/CN(C)C)C1 [Compound 3-13] |  |  | A (a value of 3 or above) |  |  |  |  |  | E (a pKi value of 7 or below (Ki of 100 nM or above)) | B (a pKi value between 9 and 10 (Ki between 1 nM and 0.1 nM)) |  | D (a pKi value between 7 and 8 (Ki between 100 nM and 10 nM)) | E (a pKi value of 7 or below (Ki of 100 nM or above)) | A (a pIC50 value≥7.5 (IC50≤32 nM))
C=CC(=O)N1CC(COc2cc(-c3ccc(O)cc3)cc3[nH]nnc23)C1 [Compound 17-1] |  |  |  |  |  |  | A (a value of 3 or above) |  | E (a pKi value of 7 or below (Ki of 100 nM or above)) | B (a pKi value between 9 and 10 (Ki between 1 nM and 0.1 nM)) | B (a pIC50 value between 6.7 (included) and 7.5 (IC50 between 200 nM and 32 nM)) | E (a pKi value of 7 or below (Ki of 100 nM or above)) | E (a pKi value of 7 or below (Ki of 100 nM or above)) | 
C=CC(=O)N1CC(OCc2nc(-c3ccc(O)cc3)cc3[nH]ncc23)C1 [Compound 16-5] |  |  |  |  |  |  | A (a value of 3 or above) |  | E (a pKi value of 7 or below (Ki of 100 nM or above)) | A (a pKi value≥10 (Ki≤0.1 nM)) | A (a pIC50 value≥7.5 (IC50≤32 nM)) | E (a pKi value of 7 or below (Ki of 100 nM or above)) | E (a pKi value of 7 or below (Ki of 100 nM or above)) | 

From patent publication US10392368B2, “Pyrazolo and triazolo bicyclic compounds as JAK kinase inhibitors” (THERAVANCE BIOPHARMA R&D IP, LLC, priority 2017, dated 2019)
